27 compounds from patent US20230286930A1, “N -SUBSTITUTED 4-(1,3-ARYLOXAZOLO-2-YL)PHENYL COMPOUNDS FOR THE TREATMENT AND PROPHYLAXIS OF HEPATITIS B VIRUS INFECTION” (Hoffmann-La Roche Inc., priority 2020, published 2023) can be followed below.

One may read the IC50 as the concentration at which inhibition is half-maximal. The term CC50 denotes the concentration giving 50% cytotoxicity. Lower therefore signals harm at low concentration.

For one data set, the system named is HBeAg. Nature of the data set: PHH natural infection assay, HBeAg (alphalisa). The format is cell-based, HBV. The settings on record: Hepatitis B virus, read-out: HBeAg IC50. Here is the method: (§1) Detailed procedures regarding primary human hepatocyte (PHH) HBV natural infection assay are described as below. One tube of frozen PHH (10 million cells) is thawed in 37° C. water bath and then transferred to 20 mL of PHH thawing medium (Sigma, InVitroGRO HT Medium, Cat. S03319) with gently mixing. The cells were then centrifuged at […] for 5 min, the supernatant was discarded and the tube was refilled with 25 mL of PHH plating medium (Sigma, InVitroGRO CP Medium, Cat. S03317). The tube was shaken very gently to re-suspend all cells, and then 50 μL of cells were transferred to each well 384-well collagen I coated plate with appropriate liquid handling equipment, e.g. Integra VIAFLO384 or Agilent Bravo. The cells were then cultured for 24 hours in a cell incubator. For HBV infection, after PHH attachment on the culture plate, the plating medium was removed and replenished with PHH culture medium containing HBV virus. The PHH culture medium was prepared with Dulbecco's Modified Eagle Medium (DMEM)/F12 (1:1 in volume ratio) containing 10% fetal bovine serum (Gibco, Cat. 10099141), 5 ng/mL human epidermal growth factor (Gibco, Cat.PHG0311L), 20 ng/mL dexamethasone (Sigma, Cat.D4902-100 mg), 250 ng/mL human recombinant insulin (Gibco, Cat.41400045) and 100 U/mL penicillin. HBV virus at 200 genome equivalent (GE) per cell with 4% PEG8000 (Sigma, Cat.P1458) containing culture medium were added to the PHH culture medium for infection. The cells were then cultured for 24 hours in cell incubator. Then the cell culture supernatant was removed. The HBV-infected PHH were cultured with sandwich culture method with PHH culture medium containing 1% DMSO and 0.25 mg/mL matrix gel for 72 hours. The supernatant was then refreshed with PHH culture medium containing different concentrations of testing compounds for two times with 72-hour interval. At the end of treatment, the supernatant was collected for viral markers measurements, including HBsAg, HBeAg, HBV DNA and cytotoxicity. HBsAg and HBeAg were detected using alphalisa method using their specific antibodies. For HBV DNA detection, HBV DNA Quantitative Fluorescence Diagnostic Kit (Sansure Biotech Inc.) was used following the manufacture's protocol. Cytotoxicity was determined using Cell Counting Kit-8 (CCK8, Dojindo Molecular Technologies, Inc.).
(§2) The compounds of the present invention were tested for their capacity to inhibit HBsAg and HBeAg as described herein.
(In general: In Alpha technology, singlet oxygen from a donor bead excites a nearby acceptor bead.)

Another data set has as its system HBsAg. Nature of the data set: PHH natural infection assay, HBsAg (alphalisa). Particulars: Hepatitis B virus, read-out: HBsAg IC50. The format is cell-based, HBV. Here is the method:
as §1, §2

A short description of data set [1]: PHH natural infection assay, cytotoxicity (Cell Counting Kit-8). The format is cell-based. The settings on record: human. Here is the method: as §1

Each structure is given as a SMILES string.

`O=C(Nc1ccc(-c2nc3c(F)cccc3o2)cc1)C12CC(C1)C2` [Example 47, N-[4-(4-fluoro-1,3-benzoxazol-2-yl)phenyl]bicyclo[1.1.1]pentane-1-carboxamide]: the half-maximal inhibitory concentration (IC50) in the data set with HBeAg was 1.2 µM; in the data set with HBsAg, 1.02 µM. The CC50 at 144 h in data set [1] was > 100 µM.

`O=C(Nc1ccc(-c2nc3c(F)cccc3o2)cc1)C12CC(F)(C1)C2` [Example 48, 3-fluoro-N-[4-(4-fluoro-1,3-benzoxazol-2-yl)phenyl]bicyclo[1.1.1]pentane-1-carboxamide]: the IC50 in the data set on HBeAg is 0.97 µM; with HBsAg it was 0.76 µM. Besides, in data set [1], the CC50 at 144 h is > 100 µM.

For `CC(C)(O)C(=O)Nc1ccc(-c2nc3c(F)cccc3o2)cc1` [Example 49, N-[4-(4-fluoro-1,3-benzoxazol-2-yl)phenyl]-2-hydroxy-2-methyl-propanamide], the IC50 came to 0.53 µM in the data set with HBeAg and 0.62 µM in the data set with HBsAg. For the same compound, in data set [1], the CC50 at 144 h was > 100 µM.

Take `O=C(Nc1ccc(-c2nc3c(F)cccc3o2)cc1)C1CCS(=O)(=O)C1` (stereo not drawn) [Example 50, N-[4-(4-fluoro-1,3-benzoxazol-2-yl)phenyl]-1,1-dioxo-thiolane-3-carboxamide]: the IC50 with HBeAg was found to be 1.51 µM; in the data set on HBsAg it was 1.2 µM. Besides, in data set [1], the CC50 at 144 h is > 100 µM.

Consider `CC1(C(=O)Nc2ccc(-c3nc4c(F)cccc4o3)cc2)COC1` [Example 51, N-[4-(4-fluoro-1,3-benzoxazol-2-yl)phenyl]-3-methyl-oxetane-3-carboxamide], for which the IC50 in the data set on HBeAg turned out to be 1.23 µM; in the data set with HBsAg it was 1.16 µM. In addition, the CC50 at 144 h in data set [1] was > 100 µM.

With `CC(O)C(=O)Nc1ccc(-c2nc3c(F)cccc3o2)cc1` (stereo not drawn) [Example 52, N-[4-(4-fluoro-1,3-benzoxazol-2-yl)phenyl]-2-hydroxy-propanamide], the IC50 with HBeAg stood at 1.78 µM; with HBsAg it was 1.72 µM. For the same compound, the CC50 at 144 h in data set [1] is > 100 µM.

Take `CC(C)(C)C(=O)Nc1ccc(-c2nc3c(F)cccc3o2)cc1` [Example 53, N-[4-(4-fluoro-1,3-benzoxazol-2-yl)phenyl]-2,2-dimethyl-propanamide]: the IC50 in the data set with HBeAg was 1.17 µM; in the data set with HBsAg, 1.43 µM. For the same compound, the CC50 at 144 h in data set [1] is > 100 µM.

For the compound `O=C(Nc1ccc(-c2nc3c(F)cccc3o2)cc1)C1CCOC1` (stereo not drawn) [Example 54, N-[4-(4-fluoro-1,3-benzoxazol-2-yl)phenyl]tetrahydrofuran-3-carboxamide], the results for the IC50 in the data set with HBeAg and in the data set with HBsAg were 2.83 µM and 2.68 µM, respectively. Besides, in data set [1], the CC50 at 144 h was > 100 µM.

Turning to `O=C(Nc1ccc(-c2nc3c(F)cccc3o2)cc1)C1CCS(=O)(=O)CC1` [Example 55, N-[4-(4-fluoro-1,3-benzoxazol-2-yl)phenyl]-1,1-dioxo-thiane-4-carboxamide], the IC50 amounted to 2.8 µM in the data set with HBeAg and 2.96 µM with HBsAg. Besides, in data set [1], the CC50 at 144 h is > 100 µM.

Take `CC1(C(=O)Nc2ccc(-c3nc4c(F)cccc4o3)cc2)CC(=O)C1` [Example 56, N-[4-(4-fluoro-1,3-benzoxazol-2-yl)phenyl]-1-methyl-3-oxo-cyclobutanecarboxamide]: the figures for the half-inhibitory concentration (IC50) in the data set with HBeAg and in the data set with HBsAg were 4.3 µM and 3.39 µM, respectively. Moreover, the CC50 at 144 h in data set [1] is > 100 µM.

Take `O=C(Nc1ccc(-c2nc3c(F)cccc3o2)cc1)C1CS(=O)(=O)C1` [Example 57, N-[4-(4-fluoro-1,3-benzoxazol-2-yl)phenyl]-1,1-dioxo-thietane-3-carboxamide]: the IC50 in the data set with HBeAg worked out at 9.08 µM; with HBsAg it was 8.19 µM. For the same compound, the CC50 at 144 h in data set [1] was > 100 µM.

For `COC(=O)Nc1ccc(-c2nc3c(F)cccc3o2)cc1` [Example 58, methyl N-[4-(4-fluoro-1,3-benzoxazol-2-yl)phenyl]carbamate], the figures for the IC50 in the data set on HBeAg and in the data set with HBsAg were 8.77 µM and 5.96 µM, respectively. Moreover, in data set [1], the half-maximal cytotoxic concentration (CC50) at 144 h was > 100 µM.

As to `CCOC(=O)Nc1ccc(-c2nc3c(F)cccc3o2)cc1` [Example 59, ethyl N-[4-(4-fluoro-1,3-benzoxazol-2-yl)phenyl]carbamate], the IC50 in the data set with HBeAg was found to be 1.57 µM; in the data set on HBsAg it was 1.64 µM. In data set [1], the CC50 at 144 h is > 100 µM.

With `CC(C)OC(=O)Nc1ccc(-c2nc3c(F)cccc3o2)cc1` [Example 60, isopropyl N-[4-(4-fluoro-1,3-benzoxazol-2-yl)phenyl]carbamate], the half-maximal inhibitory concentration (IC50) worked out at 3 µM with HBeAg and 5.04 µM in the data set on HBsAg. Further, the CC50 at 144 h in data set [1] is > 100 µM.

On to `CC(C)(C)C(=O)Nc1ccc(-c2nc3cccnc3o2)cc1` [Example 61, 2,2-dimethyl-N-(4-oxazolo[5,4-b]pyridin-2-ylphenyl)propanamide], for which the IC50 in the data set on HBeAg turned out to be 1.55 µM; with HBsAg, 1.5 µM. Besides, the 50% cytotoxic concentration (CC50) at 144 h in data set [1] is > 100 µM.

`COC(C)C(=O)Nc1ccc(-c2nc3cccnc3o2)cc1` (stereo not drawn) [Example 62, 2-methoxy-N-(4-oxazolo[5,4-b]pyridin-2-ylphenyl)propanamide]: the figures for the IC50 with HBeAg and in the data set on HBsAg were 3.29 µM and 1.61 µM, respectively. The 50% cytotoxic concentration (CC50) at 144 h in data set [1] is > 100 µM.

Regarding `O=C(Nc1ccc(-c2nc3cccnc3o2)cc1)C1CCS(=O)(=O)C1` (stereo not drawn) [Example 63, N-(4-oxazolo[5,4-b]pyridin-2-ylphenyl)-1,1-dioxo-thiolane-3-carboxamide], the IC50 in the data set on HBeAg worked out at 4.83 µM; in the data set on HBsAg, 2.53 µM. Besides, in data set [1], the CC50 at 144 h was > 100 µM.

For the compound `CC1(C(=O)Nc2ccc(-c3nc4cccnc4o3)cc2)CCOC1` (stereo not drawn) [Example 64, 3-methyl-N-(4-oxazolo[5,4-b]pyridin-2-ylphenyl)tetrahydrofuran-3-carboxamide], the IC50 worked out at 3.56 µM in the data set on HBeAg and 2.76 µM in the data set on HBsAg. The CC50 at 144 h in data set [1] was > 100 µM.

Turning to `CC1(C(=O)Nc2ccc(-c3nc4cccnc4o3)cc2)COC1` [Example 65, 3-methyl-N-(4-oxazolo[5,4-b]pyridin-2-ylphenyl)oxetane-3-carboxamide], the IC50 in the data set on HBeAg is 2.2 µM; in the data set on HBsAg it was 2.73 µM. Further, the CC50 at 144 h in data set [1] was > 100 µM.

Take `O=C(Nc1ccc(-c2nc3cccnc3o2)cc1)C1CCS(=O)(=O)CC1` [Example 66, N-(4-oxazolo[5,4-b]pyridin-2-ylphenyl)-1,1-dioxo-thiane-4-carboxamide]: the IC50 in the data set with HBeAg turned out to be 6.11 µM; in the data set on HBsAg, 3.9 µM. Also, the CC50 at 144 h in data set [1] is > 100 µM.

On to `O=C(Nc1ccc(-c2nc3cccnc3o2)cc1)C1CCOC1` (stereo not drawn) [Example 67, N-(4-oxazolo[5,4-b]pyridin-2-ylphenyl)tetrahydrofuran-3-carboxamide], for which the half-maximal inhibitory concentration (IC50) is 3.3 µM in the data set on HBeAg and 3.08 µM in the data set on HBsAg. For the same compound, the CC50 at 144 h in data set [1] is > 100 µM.

Consider `O=C(Nc1ccc(-c2nc3cccnc3o2)cc1)C1COC1` [Example 68, N-(4-oxazolo[5,4-b]pyridin-2-ylphenyl)oxetane-3-carboxamide], for which the IC50 in the data set with HBeAg is 4.22 µM; with HBsAg it was 4.51 µM. The CC50 at 144 h in data set [1] was > 100 µM.

Take `O=C(Nc1ccc(-c2nc3c(F)c(F)ccc3o2)cc1)C1CCOC1` (stereo not drawn) [Example 69, N-[4-(4,5-difluoro-1,3-benzoxazol-2-yl)phenyl]tetrahydrofuran-3-carboxamide]: the IC50 in the data set with HBeAg turned out to be 2.1 µM; in the data set with HBsAg, 1.49 µM. In data set [1], the CC50 at 144 h is > 100 µM.

As for `O=C(Nc1ccc(-c2nc3cc(F)cc(F)c3o2)cc1)C1CCOC1` (stereo not drawn) [Example 70, N-[4-(5,7-difluoro-1,3-benzoxazol-2-yl)phenyl]tetrahydrofuran-3-carboxamide], the IC50 with HBeAg was 2.46 µM; in the data set with HBsAg, 1.75 µM. Besides, the CC50 at 144 h in data set [1] was > 100 µM.

As for `Cc1ccc2nc(-c3ccc(NC(=O)C4CCOC4)cc3)oc2n1` (stereo not drawn) [Example 71, N-[4-(5-methyloxazolo[5,4-b]pyridin-2-yl)phenyl]tetrahydrofuran-3-carboxamide], the IC50 in the data set with HBeAg was 17.5 µM; in the data set with HBsAg, 9.29 µM. Also, the CC50 at 144 h in data set [1] is > 100 µM.

Consider `COc1ccc2nc(-c3ccc(NC(=O)C4CCOC4)cc3)oc2n1` (stereo not drawn) [Example 72, N-[4-(5-methoxyoxazolo[5,4-b]pyridin-2-yl)phenyl]tetrahydrofuran-3-carboxamide], for which the IC50 worked out at 2.61 µM in the data set with HBeAg and 2.22 µM in the data set with HBsAg. Also, the cytotoxic concentration (CC50) at 144 h in data set [1] is > 100 µM.

For `O=C(Nc1ccc(-c2nc3cc(Cl)ccc3o2)cc1)c1ncco1` [Example 73, N-[4-(5-chloro-1,3-benzoxazol-2-yl)phenyl]oxazole-2-carboxamide], the IC50 with HBeAg was determined as 2.05 µM; in the data set with HBsAg it was 1.78 µM. The CC50 at 144 h in data set [1] was > 100 µM.
